This is an account of results in patent publication US7247634B2, “Rifamycin derivatives effective against drug-resistant microbes” (Cumbre Pharmaceuticals Inc., priority 2004, dated 2007).

Molecules are shown by their SMILES. Values after ≈ are worked out from the molar mass of the structure shown.

Common to all, as to type: cell-based
Test [1] has as its system Staphylococcus aureus ATCC29213. The test is described as follows: MIC, microbroth dilution (NCCLS). As to conditions: rifS strain, Cation-Adjusted Mueller-Hinton Broth, 37° C., read-out: Antimicrobial activity (MIC). (In general: Broth dilution looks for growth in wells or tubes with falling amounts of substance.)
Test [2] concerns Staphylococcus aureus ATCC29213 rpoB^D417Y. Briefly: microbe, parasite or virus in culture. As to conditions: ATCC29213, read-out: Antimicrobial activity (MIC). The protocol:
(§1) Representative compounds were assayed for antimicrobial activity as follows: Minimum Inhibitory Concentrations (“MICs”) were determined by the microbroth dilution method as per NCCLS guidelines (National Committee for Clinical Laboratory Standards. 2000. Methods for dilution antimicrobial susceptibility tests for bacteria that grow aerobically, 5th ed. M7-A5. National Committee for Clinical Laboratory Standards, Wayne, Pa.), except that all growth incubations were conducted at 37° C. Bacterial cultures were tested in the following bacteriological media: S. aureus, S. epidermidis, and E. coli in Cation-Adjusted Mueller-Hinton Broth, S. pneumoniae in THY Broth supplemented with 1 mg/mL catalase under 5% CO2 atmosphere, S. pyogenes in THY Broth, E. faecalis in BHI Broth, H. influenzae in BHI Broth supplemented with 0.75 μL of 1 mg/mL NAD and 150 μL of 1 mg/ml hematin per 5 mL, and M. smegmatis in Middlebrook Broth plus ADC Enrichment.
(§2) S. aureus ATCC 29213 RpoB^H418Y is a rifampin-resistant strain with a mutation in RNA polymerase, the biological target of rifamycin antibiotics. […] S. aureus EN1252a gyrA^S84L grlA^S80F is a quinolone-resistant strain due to double mutations to DNA gyrase and topoisomerase IV, the two biological targets for quinolone antibiotics.

The test system of test [3] is Staphylococcus aureus ATCC29213 rpoB^H418Y. Briefly: microbe, parasite or virus in culture. As to conditions: ATCC29213, read-out: Antimicrobial activity (MIC). On the procedure: as §1, §2
Test [4] concerns Staphylococcus aureus EN1252a gyrA^S84L grlA^S80F. The test is described as follows: microbe, parasite or virus in culture. As to conditions: read-out: Antimicrobial activity (MIC). On the procedure:
as §1, §2

Test [5] deals with Staphylococcus epidermidis ATCC12228. The test is described as follows: MIC, microbroth dilution (NCCLS). As to conditions: rifS strain, Cation-Adjusted Mueller-Hinton Broth, 37° C., read-out: Antimicrobial activity (MIC).
The subject of test [6] is Streptococcus pneumoniae ATCC6303. The test is described as follows: MIC, microbroth dilution (NCCLS). As to conditions: rifS strain, THY Broth with 1 mg/mL catalase, 5% CO2, 37° C., read-out: Antimicrobial activity (MIC).
The test system of test [7] is Streptococcus pyogenes ATCC19615. Briefly: MIC, microbroth dilution (NCCLS). As to conditions: rifS strain, THY Broth, 37° C., read-out: Antimicrobial activity (MIC).
Test [8] has as its system Enterococcus faecalis ATCC29212. The test is described as follows: MIC, microbroth dilution (NCCLS). As to conditions: rifS strain, BHI Broth, 37° C., read-out: Antimicrobial activity (MIC).
Test [9] relates to Haemophilus influenzae ATCC10211. The test is described as follows: MIC, microbroth dilution (NCCLS). As to conditions: rifS strain, BHI Broth with NAD and hematin, 37° C., read-out: Antimicrobial activity (MIC).
In test [10] the test system is Escherichia coli ATCC25922. Briefly: MIC, microbroth dilution (NCCLS). As to conditions: rifS strain, Cation-Adjusted Mueller-Hinton Broth, 37° C., read-out: Antimicrobial activity (MIC).
Test [11] relates to Mycobacterium smegmatis ATCC700084. Briefly: MIC, microbroth dilution (NCCLS). As to conditions: Mycolicibacterium smegmatis, rifS strain, Middlebrook Broth plus ADC Enrichment, 37° C., read-out: Antimicrobial activity (MIC).

Consider `COc1c(N2CCC(N(C)C3CCN(C4=C5NC(=O)/C(C)=C\C=C\[C@H](C)[C@H](O)[C@@H](C)[C@@H](O)[C@@H](C)[C@H](OC(C)=O)[C@H](C)[C@@H](OC)/C=C/O[C@@]6(C)Oc7c(C)c(O)c(c(c7C6=O)C4=O)C5=O)CC3)C2)c(F)cc2c(=O)c(C(=O)O)cn(C3CC3)c12` (mixture of isomers) [Example 34], for which the MIC in [1] was in the range of 0.004 to 0.5 µg/mL (≈ 0.00347 to 0.434 µM); in [2], 0.06 to 32 µg/mL (≈ 0.0521 to 27.8 µM); in test [3] it was 0.06 to 16 µg/mL (≈ 0.0521 to 13.9 µM); in test [4], 0.004 to 0.5 µg/mL (≈ 0.00347 to 0.434 µM); in test [5], 0.008 to 0.063 µg/mL (≈ 0.00694 to 0.0547 µM); in test [6], 0.008 to 0.125 µg/mL (≈ 0.00694 to 0.108 µM). Also, the MIC in [7] fell in the range of 0.008 to 0.063 µg/mL (≈ 0.00694 to 0.0547 µM); in test [8], 2 to 32 µg/mL (≈ 1.74 to 27.8 µM); in test [9], 0.125 to 2 µg/mL (≈ 0.108 to 1.74 µM); in test [10], 0.125 to 8 µg/mL (≈ 0.108 to 6.94 µM); in test [11], 0.5 to 64 µg/mL.
For the molecule `CO[C@H]1/C=C/O[C@@]2(C)Oc3c(C)c(O)c4c(c3C2=O)C(=O)C(N2CCC(NCC3CCN(c5c(F)cc6c(=O)c(C(=O)O)cn(C7CC7)c6c5Cl)C3)CC2)=C(NC(=O)/C(C)=C\C=C\[C@H](C)[C@H](O)[C@@H](C)[C@@H](O)[C@@H](C)[C@H](OC(C)=O)[C@@H]1C)C4=O` (mixture of isomers) [Example 36, (R/S)-3-{4-[1-(3-Carboxy-8-chloro-1-cyclopropyl-6-fluoro-4-oxo-1,4-dihydroquinolin-7-yl)-(pyrrolidin-3-ylmethyl)-amino]-piperidin-1-yl}rifamycin S], the MIC fell in the range of 0.004 to 0.5 µg/mL (≈ 0.00346 to 0.432 µM) in test [1]; 0.06 to 32 µg/mL (≈ 0.0519 to 27.7 µM) in test [2]; 0.06 to 16 µg/mL (≈ 0.0519 to 13.8 µM) in test [3]; 0.004 to 0.5 µg/mL (≈ 0.00346 to 0.432 µM) in [4]; 0.008 to 0.063 µg/mL (≈ 0.00692 to 0.0545 µM) in test [5]; 0.008 to 0.125 µg/mL (≈ 0.00692 to 0.108 µM) in [6]. The MIC lay in the range of 0.008 to 0.063 µg/mL (≈ 0.00692 to 0.0545 µM) in test [7]; 2 to 32 µg/mL (≈ 1.73 to 27.7 µM) in [8]; 0.125 to 2 µg/mL (≈ 0.108 to 1.73 µM) in [9]; 0.125 to 8 µg/mL (≈ 0.108 to 6.92 µM) in test [10]; 0.5 to 64 µg/mL in [11].
Take `CO[C@H]1/C=C/O[C@@]2(C)Oc3c(C)c(O)c4c(c3C2=O)C(=O)C(N2CCC(NCC3CCN(c5nc6c(cc5F)c(=O)c(C(=O)O)cn6-c5ccc(F)cc5F)C3)CC2)=C(NC(=O)/C(C)=C\C=C\[C@H](C)[C@H](O)[C@@H](C)[C@@H](O)[C@@H](C)[C@H](OC(C)=O)[C@@H]1C)C4=O` (mixture of isomers) [Example 37]: the MIC in [1] lay in the range of 0.004 to 0.5 µg/mL (≈ 0.00335 to 0.418 µM); in [2], 0.06 to 32 µg/mL (≈ 0.0502 to 26.8 µM); in test [3], 0.06 to 16 µg/mL (≈ 0.0502 to 13.4 µM); in [4], 0.004 to 0.5 µg/mL (≈ 0.00335 to 0.418 µM); in test [5] it was 0.008 to 0.063 µg/mL (≈ 0.00669 to 0.0527 µM); in [6], 0.008 to 0.125 µg/mL (≈ 0.00669 to 0.105 µM). In addition, the MIC is 0.008 to 0.063 µg/mL (≈ 0.00669 to 0.0527 µM) in test [7]; 2 to 32 µg/mL (≈ 1.67 to 26.8 µM) in test [8]; 0.125 to 2 µg/mL (≈ 0.105 to 1.67 µM) in test [9]; 0.125 to 8 µg/mL (≈ 0.105 to 6.69 µM) in test [10]; 0.5 to 64 µg/mL in [11].
Take `COc1c(N2CCC(C3(N(C)C4CCN(C5=C6NC(=O)/C(C)=C\C=C\[C@H](C)[C@H](O)[C@@H](C)[C@@H](O)[C@@H](C)[C@H](OC(C)=O)[C@H](C)[C@@H](OC)/C=C/O[C@@]7(C)Oc8c(C)c(O)c(c(c8C7=O)C5=O)C6=O)CC4)CC3)C2)c(F)cc2c(=O)c(C(=O)O)cn(C3CC3)c12` (mixture of isomers) [Example 41]: the MIC lay within 0.004 to 0.5 µg/mL (≈ 0.00335 to 0.419 µM) in test [1]; 0.06 to 32 µg/mL (≈ 0.0503 to 26.8 µM) in test [2]; 0.06 to 16 µg/mL (≈ 0.0503 to 13.4 µM) in test [3]; 0.004 to 0.5 µg/mL (≈ 0.00335 to 0.419 µM) in test [4]; 0.008 to 0.063 µg/mL (≈ 0.00671 to 0.0528 µM) in test [5]; 0.008 to 0.125 µg/mL (≈ 0.00671 to 0.105 µM) in test [6]. In addition, the MIC was 0.008 to 0.063 µg/mL (≈ 0.00671 to 0.0528 µM) in [7]; 2 to 32 µg/mL (≈ 1.68 to 26.8 µM) in test [8]; 0.125 to 2 µg/mL (≈ 0.105 to 1.68 µM) in test [9]; 0.125 to 8 µg/mL (≈ 0.105 to 6.71 µM) in test [10]; 0.5 to 64 µg/mL in test [11].
